Reference: ChEMBL document CHEMBL2163345, “Part II. Development of novel colchicine-derived immunosuppressants with improved pharmacokinetic properties” (Bioorg Med Chem Lett, 2012)
Converted amounts (≈) assume the structure as drawn. The source made the active and inactive calls. No cut-off for these calls is given here.

Experiments:
Splenocyte = experiment: Immunosuppressant activity in mouse splenocytes by mixed-leukocyte reaction assay; format: functional, cell-based
[1] = Solubility of the compound in presence of 20% serum; format: physicochemical
[2] = Immunosuppressant activity in chicken B-lymphocyte activated splenic lymphocytes assessed as inhibition of LPS-induced cell proliferation by [3H]thymidine incorporation assay; format: functional; details: Gallus gallus
[3] = Immunosuppressant activity in chicken T-lymphocyte activated splenic lymphocytes assessed as inhibition of ConA-induced cell proliferation by [3H]thymidine incorporation assay; format: functional; details: Gallus gallus
B-cell = experiment: Antiproliferative activity against LPS-induced B cells; format: functional, cell-based
[4] = Antiproliferative activity against BMDM cells; format: cell-based
[5] = Oral bioavailability in BALB/c mouse at 1 mg/kg; format: ADME, organism-based; details: in vivo
[6] = Mean residence time (infinity) in BALB/c mouse at 0.5 mg/kg, iv; format: ADME, organism-based; design: dose 0.5 mg/kg, route intravenous; details: in vivo
Mus musculus [7] = species on record: Mus musculus; experiment: Immunosuppressant activity in C57BL/6 mouse assessed as inhibition of zymosan A-induced arthritis; format: functional, organism-based
[8] = Tmax in BALB/c mouse at 1 mg/kg, po; format: ADME, organism-based; design: dose 1 mg/kg, route oral; details: in vivo
[9] = Mean residence time (infinity) in BALB/c mouse at 1 mg/kg, po; format: ADME, organism-based; design: dose 1 mg/kg, route oral; details: in vivo
[10] = AUC (0 to infinity) in BALB/c mouse at 0.5 mg/kg, iv; format: ADME, organism-based; design: time infinity, dose 0.5 mg/kg, route intravenous; details: plasma
[11] = Antiproliferative activity against bone marrow-derived dendritic cells; format: cell-based; details: dendritic cell
T-cell = experiment: Antiproliferative activity against ConA-induced T cells; format: functional, cell-based
Dendritic cell = experiment: Antiproliferative activity against LPS-induced bone marrow-derived dendritic cells; format: functional, cell-based
BMDM = experiment: Antiproliferative activity against LPS-induced BMDM cells; format: functional, cell-based
[12] = Antiproliferative activity against T cells; format: cell-based; details: t-cell
[13] = AUC (0 to infinity) in BALB/c mouse at 1 mg/kg, po; format: ADME, organism-based; design: time infinity, dose 1 mg/kg, route oral; details: plasma
[14] = Half life in BALB/c mouse at 1 mg/kg, po; format: ADME, organism-based; design: dose 1 mg/kg, route oral; details: in vivo
Mus musculus [15] = species on record: Mus musculus; experiment: Immunosuppressant activity in C57BL/6 mouse assessed as inhibition of DNCB-induced cytokine release by local lymph node assay; format: functional, organism-based
[16] = Volume of distribution at steady state in BALB/c mouse at 0.5 mg/kg, iv; format: ADME, organism-based; design: dose 0.5 mg/kg, route intravenous; details: in vivo, read-out: Vdss
Mus musculus [17] = experiment: Immunosuppressant activity in C57BL/6 mouse assessed as inhibition of carrageenan-induced paw edema; format: functional, organism-based
[18] = Cmax in BALB/c mouse at 1 mg/kg, po; format: ADME, organism-based; design: dose 1 mg/kg, route oral; details: in vivo
[19] = Clearance in BALB/c mouse at 0.5 mg/kg, iv; format: ADME, organism-based; design: dose 0.5 mg/kg, route intravenous; details: in vivo
[20] = Antiproliferative activity against B cells; format: cell-based; details: b-cell
[21] = Half life in BALB/c mouse at 0.5 mg/kg, iv; format: ADME, organism-based; design: dose 0.5 mg/kg, route intravenous; details: in vivo
[22] = Mus musculus, Splenocyte, read-out: IC50

COc1cc2c(c(OC)c1OC)-c1ccc([S+](C)[O-])c(=O)cc1[C@@H](NC(=O)C1CC1C)CC2 (stereo not given in full)
IC50 (Splenocyte; splenocyte): Not Active

COc1cc2c(c(OC)c1OC)-c1ccc(SC)c(=O)cc1[C@@H](NC(=O)CCCO[N+](=O)[O-])CC2
solubility [1]: 100 µM

COc1cc2c(c(OC)c1OC)-c1ccc(OC)c(=O)cc1[C@@H](NC(C)=O)CC2 [COLCHICINE]
solubility [1]: 300 µM

COc1cc2c(c(OC)c1OC)-c1ccc(SC)c(=O)cc1[C@H](NC(=O)C1CC1C)CC2 (stereo not given in full)
IC50 (Splenocyte; splenocyte): Not Active

COc1cc2c(c(OC)c1OC)-c1cccc(=O)cc1[C@@H](NC(=O)C1CC1C)CC2 (stereo not given in full)
IC50 (Splenocyte; splenocyte): Not Active

COc1cc2c(c(OC)c1OC)-c1ccc(SC)c(=O)cc1[C@@H](NC(=O)C1NC1C)CC2 (stereo not given in full)
IC50 (Splenocyte; [22]): 46 nM

COc1cc2c(c(OC)c1OC)-c1ccc(SC)c(=O)cc1[C@@H](NC(=O)C1C(C)N1C)CC2 (stereo not given in full)
IC50 (Splenocyte; [22]): 38 nM

COc1cc2c(c(OC)c1OC)-c1ccc(OC)c(=O)cc1[C@@H](NC(=O)C1CC1C)CC2 (stereo not given in full)
IC50 (Splenocyte; [22]): 1250 nM

COc1cc2c(c(OC)c1OC)-c1ccc(S(C)(=O)=O)c(=O)cc1[C@@H](NC(=O)C1CC1C)CC2 (stereo not given in full)
IC50 (Splenocyte; splenocyte): Not Active

C=C(CC)C(=O)N[C@H]1CCc2cc(OC)c(OC)c(OC)c2-c2ccc(SC)c(=O)cc21
IC50 (Splenocyte; [22]): 86 nM

C/C=C/C=C/C(=O)N[C@H]1CCc2cc(OC)c(OC)c(OC)c2-c2ccc(SC)c(=O)cc21
IC50 [2]: 0.0057 µg/mL (≈ 0.0122 µM)
IC50 (Splenocyte; [22]): 4 nM
IC50 [3]: 0.0407 µg/mL (≈ 0.087 µM)

C=C(C)/C=C(\CC)C(=O)N[C@H]1CCc2cc(OC)c(OC)c(OC)c2-c2ccc(SC)c(=O)cc21
IC50 (Splenocyte; [22]): 31 nM

C/C=C/C(=O)N[C@H]1CCc2cc(OC)c(OC)c(OC)c2-c2ccc(SC)c(=O)cc21
IC50 (Splenocyte; [22]): 67 nM

COc1cc2c(c(OC)c1OC)-c1ccc(SC)c(=O)cc1[C@@H](NC(=O)C1CC1C)CC2 (stereo not given in full)
Activity (B-cell): Active
Activity [4]: Non-toxic
bioavailability [5]: 67.3%
MRT inf [6]: 0.6 h
inhibition (Mus musculus [7]): Dose-dependent effect
IC50 [2]: 0.0059 µg/mL (≈ 0.013 µM)
Tmax [8]: 0.25 h
MRT inf [9]: 2.2 h
AUC(0-inf) [10]: 200 ng·h/mL
Activity [11]: Non-toxic
Activity (T-cell): Active
Activity (Dendritic cell): Active
Activity (BMDM): Active
Activity [12]: Non-toxic
AUC(0-inf) [13]: 269 ng·h/mL
half-life [14]: 2.9 h
IC50 (Splenocyte; [22]): 5 nM
inhibition (Mus musculus [15]): Active
Vd [16]: 1.6 L/kg
inhibition (Mus musculus [17]): Dose-dependent effect
Cmax [18]: 254 ng/mL
clearance [19]: 41.7 mL/min/kg
Activity [20]: Non-toxic
half-life [21]: 2.9 h
IC50 [3]: 0.031 µg/mL (≈ 0.068 µM)

C=CCC(=O)N[C@H]1CCc2cc(OC)c(OC)c(OC)c2-c2ccc(SC)c(=O)cc21
IC50 (Splenocyte; [22]): 702 nM

C/C=C/CC(=O)N[C@H]1CCc2cc(OC)c(OC)c(OC)c2-c2ccc(SC)c(=O)cc21
IC50 (Splenocyte; [22]): 1670 nM

COc1cc2c(c(OC)c1OC)-c1ccc(SC)c(=O)cc1[C@@H](NC(=O)c1cccc(CO[N+](=O)[O-])c1)CC2
solubility [1]: 10 µM

COc1cc2c(c(OC)c1OC)-c1ccc(SC)c(=O)cc1[C@@H](NC(=O)C1OC1C)CC2 (mixture of isomers)
IC50 (Splenocyte; [22]): 119 nM

C=CC(=C)C(=O)N[C@H]1CCc2cc(OC)c(OC)c(OC)c2-c2ccc(SC)c(=O)cc21
IC50 (Splenocyte; [22]): 112 nM
